Biological target: T1, Canton G6PD (Homo sapiens, UniProt P11413, R459L)
T1 construct: His (pET-28a) (N, cleaved yes); made in house; host or cells: E. coli C43 (DE3)
Assay: Canton G6PD enzyme activity, diaphorase-coupled assay
Type: biochemical
Experimental: Enzyme activity was measured by monitoring NADPH production, which was coupled with diaphorase converting resazurin to fluorescent resorufin (excitation at 565 nm and emission at 590 nm); fluorescent signal was thus proportional to G6PD activity. Assays were performed at 25° C. and run for 5 minutes in buffer containing 50 mM Tris (pH 7.4), 0.5 mM EDTA, 3.3 mM MgCl2, 1 U/ml diaphorase, 0.1 mM resazurin. 10 ng of recombinant enzymes or 10 μg of cell lysates was used for the assay with 10 μM NADP^+ (Sigma) as cofactor and 100 μM G6P (Sigma) as substrate. Steady-state kinetic parameters were obtained by varying concentrations of NADP^+ (0-10 μM) with a constant concentration of G6P (100 μM) and similarly for G6P (0-100 μM) with a constant concentration of NADP^+ (10 μM) with 10 ng of recombinant enzymes. Data analysis was performed using GraphPad Prism software v.6 (GraphPad Software, La Jolla, Calif. USA). Kinetic parameters were obtained by fitting the data to the Michaelis-Menten equation.
The diaphorase-coupled enzyme assay as described above was used to screen a library of compounds for small molecule activators. The compounds were added to Canton G6PD enzyme reaction mixture at a final concentration of 16.67 μM using Caliper Life Sciences Staccato system with a Twister II robot and a Sciclone ALH3000 (Caliper Life Sciences, Alameda, Calif. USA) integrated with a V&P Scientific pin tool, which was followed by incubation for 3 hours. Addition of G6P then initiated the reaction, which was run for 2.5 minutes. The fluorescent signals were recorded 4 times during the run using Molecular Devices AnalystGT (Molecular Devices, Sunnyvale, Calif. USA). Any compounds showing 30% activation of the enzyme were rescreened in a dose-dependent manner (0-30 μM, duplicate) to identify potential hits.
Based on preliminary results with compound AG1, a variety of compounds of interest were prepared and assessed in G6PD enzyme activation assays, according to the methods described herein.

T1 sequence (P11413 whole entry R459L): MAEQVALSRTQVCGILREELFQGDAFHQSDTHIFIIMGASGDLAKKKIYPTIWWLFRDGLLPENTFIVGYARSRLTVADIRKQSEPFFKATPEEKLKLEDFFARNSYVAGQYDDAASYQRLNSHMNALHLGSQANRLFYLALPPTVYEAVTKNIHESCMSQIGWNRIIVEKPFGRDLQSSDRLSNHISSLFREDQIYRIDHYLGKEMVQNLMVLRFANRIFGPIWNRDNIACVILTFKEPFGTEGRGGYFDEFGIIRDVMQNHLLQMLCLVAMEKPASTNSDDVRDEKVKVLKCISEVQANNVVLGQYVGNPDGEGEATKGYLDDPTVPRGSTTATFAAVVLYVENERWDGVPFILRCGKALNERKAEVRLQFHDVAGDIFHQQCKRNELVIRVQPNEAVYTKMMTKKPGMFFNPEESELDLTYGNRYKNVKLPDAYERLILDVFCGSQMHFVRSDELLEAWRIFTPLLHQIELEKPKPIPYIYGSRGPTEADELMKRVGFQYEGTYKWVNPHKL

SCCNCCc1c[nH]c2ccccc12 [AG1, 2-[2-(1H-indol-3-yl)ethylamino]ethanethiol]
increase of the activity of Canton G6PD enzyme (100 μM of AG1): 70%
kcat (turnover number) (Canton G6PD in presence of AG1): 296 ± 1 S^−1
EC50 (read-out: EC50 of activation of Canton G6PD): ~3 µM

Source: patent US20200223826A1, “Glucose-6-Phosphate Dehydrogenase (G6PD)-Modulating Agents And Methods Of Treating G6PD Deficiency” (The Board of Trustees of the Leland Stanford Junior …, priority 2017, published 2020)
